Reference: ChEMBL document CHEMBL3822442, “Synthesis and Pharmacological Characterization of Novel Glucagon-like Peptide-2 (GLP-2) Analogues with Low Systemic Clearance” (J Med Chem, 2016)
Activity calls are given as the source filed them. No cut-off for these calls is given here. Non-standard residues stand in square brackets, D forms with d. Residues, ends and D or L forms follow the SMILES beside them. ξ: configuration not given here. ξhPhe = NC(CCc1ccccc1)C(=O)O; ξ2Thi = NC(Cc1cccs1)C(=O)O; ξNle = CCCCC(N)C(=O)O

Tests used:
[1] = molecular target: Glucagon receptor (Homo sapiens) (UniProt P47871); experiment: Agonist activity at human GCGR expressed in HEK293 cells up to 1000 nM after 5 hrs by luciferase reporter gene assay; type: cell-based
[2] = Systemic clearance in Sprague-Dawley rat at 0.2 mg/kg, iv through cassette dosing measured up to 300 mins by LC/MS/MS analysis; type: ADME, organism-based; conditions: in vivo
[3] = molecular target: T1, Glucagon-like peptide 2 receptor (Homo sapiens, UniProt O95838); experiment: Agonist activity at human GLP2R expressed in HEK293 cells after 5 hrs by luciferase reporter gene assay; type: cell-based
T1 sequence (O95838 whole entry): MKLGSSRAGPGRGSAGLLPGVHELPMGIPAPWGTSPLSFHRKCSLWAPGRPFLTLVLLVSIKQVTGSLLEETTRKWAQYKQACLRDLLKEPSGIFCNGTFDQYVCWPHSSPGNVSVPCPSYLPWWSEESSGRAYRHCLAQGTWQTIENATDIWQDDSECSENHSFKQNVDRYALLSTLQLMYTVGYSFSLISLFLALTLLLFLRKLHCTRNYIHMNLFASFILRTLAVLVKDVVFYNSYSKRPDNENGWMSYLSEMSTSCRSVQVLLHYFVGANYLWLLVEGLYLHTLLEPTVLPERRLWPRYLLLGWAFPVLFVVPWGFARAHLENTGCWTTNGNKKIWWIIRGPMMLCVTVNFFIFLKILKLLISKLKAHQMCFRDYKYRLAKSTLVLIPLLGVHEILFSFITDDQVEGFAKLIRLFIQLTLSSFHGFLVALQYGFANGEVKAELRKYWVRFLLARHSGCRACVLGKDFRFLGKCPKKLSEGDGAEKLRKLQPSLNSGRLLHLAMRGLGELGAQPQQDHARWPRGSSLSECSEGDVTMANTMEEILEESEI

[4] = molecular target: Glucagon-like peptide 1 receptor (Homo sapiens, UniProt P43220); experiment: Agonist activity at human GLP1R expressed in HEK293 cells after 5 hrs by luciferase reporter gene assay; type: cell-based
[5] = test system: HEK293; experiment: Selectivity ratio of EC50 for human GLP1R expressed in HEK293 cells to EC50 for human GLP2R expressed in HEK293; type: cell-based

Sequence of Glucagon receptor (Homo sapiens) (P47871 whole entry): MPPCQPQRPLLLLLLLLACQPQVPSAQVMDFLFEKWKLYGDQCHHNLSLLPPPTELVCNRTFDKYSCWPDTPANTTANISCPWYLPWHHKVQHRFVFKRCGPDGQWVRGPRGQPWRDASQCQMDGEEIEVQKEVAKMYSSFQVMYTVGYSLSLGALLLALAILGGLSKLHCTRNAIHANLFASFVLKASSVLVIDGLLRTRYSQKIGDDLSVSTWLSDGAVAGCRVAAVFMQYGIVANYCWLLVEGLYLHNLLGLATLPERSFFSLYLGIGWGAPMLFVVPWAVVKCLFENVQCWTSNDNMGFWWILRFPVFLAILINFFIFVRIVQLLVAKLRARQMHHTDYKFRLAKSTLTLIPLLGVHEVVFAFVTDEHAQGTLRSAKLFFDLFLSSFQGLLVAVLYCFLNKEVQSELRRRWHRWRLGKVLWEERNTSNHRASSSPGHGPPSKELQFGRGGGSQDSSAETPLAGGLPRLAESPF
Sequence of Glucagon-like peptide 1 receptor (P43220 whole entry): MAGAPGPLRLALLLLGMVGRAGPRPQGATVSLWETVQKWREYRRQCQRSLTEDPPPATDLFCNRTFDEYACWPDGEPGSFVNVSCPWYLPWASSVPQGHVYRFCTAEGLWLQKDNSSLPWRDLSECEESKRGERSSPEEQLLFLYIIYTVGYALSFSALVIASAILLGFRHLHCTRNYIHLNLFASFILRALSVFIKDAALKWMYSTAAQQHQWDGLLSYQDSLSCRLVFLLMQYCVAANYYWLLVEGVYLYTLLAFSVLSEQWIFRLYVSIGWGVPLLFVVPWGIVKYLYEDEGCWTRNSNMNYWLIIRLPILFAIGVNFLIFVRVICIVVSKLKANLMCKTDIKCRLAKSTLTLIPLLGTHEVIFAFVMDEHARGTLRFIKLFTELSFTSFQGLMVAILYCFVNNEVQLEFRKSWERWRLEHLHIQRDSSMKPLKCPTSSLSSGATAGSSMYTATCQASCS

Activity [1]	clearance [2] [mL/min/kg]	EC50 [3] [nM]	EC50 [4] [nM]	Structure (SMILES)	Ratio EC50 [5]
inactive	6.1	0.2	> 1000	CCCCC(NC(=O)[C@H](CCC(=O)O)NC(=O)[C@H](CC(=O)O)NC(=O)[C@H](CO)NC(=O)[C@H](Cc1ccccc1)NC(=O)[C@H](CO)NC(=O)CNC(=O)[C@H](CC(=O)O)NC(=O)CNC(=O)[C@@H](N)Cc1cnc[nH]1)C(=O)N[C@@H](CC(N)=O)C(=O)N[C@H](C(=O)N[C@H](C(=O)N[C@@H](CC(C)C)C(=O)N[C@@H](CC(=O)O)C(=O)NC(Cc1cccs1)C(=O)N[C@@H](CC(C)C)C(=O)N[C@@H](C)C(=O)N[C@@H](C)C(=O)N[C@@H](CCCNC(=N)N)C(=O)N[C@@H](CC(=O)O)C(=O)N[C@@H](Cc1ccccc1)C(=O)N[C@H](C(=O)N[C@@H](CC(N)=O)C(=O)N[C@@H](Cc1c[nH]c2ccccc12)C(=O)N[C@@H](CC(C)C)C(=O)N[C@H](C(=O)N[C@@H](CCC(N)=O)C(=O)N[C@H](C(=O)N[C@@H](CCCCN)C(N)=O)[C@@H](C)O)[C@@H](C)CC)[C@@H](C)CC)[C@@H](C)CC)[C@@H](C)O (some centres undefined) (H-HGDGSFSDE[ξNle]NTILD[ξ2Thi]LAARDFINWLIQTK-NH2)	> 5000
inactive	1.2	0.11	> 1000	CCCCC(NC(=O)[C@H](CCC(=O)O)NC(=O)[C@H](CC(=O)O)NC(=O)[C@H](CO)NC(=O)[C@H](Cc1ccccc1)NC(=O)[C@H](CO)NC(=O)CNC(=O)[C@H](CC(=O)O)NC(=O)CNC(=O)[C@@H](N)Cc1cnc[nH]1)C(=O)N[C@@H](CC(N)=O)C(=O)N[C@H](C(=O)N[C@H](C(=O)N[C@@H](CC(C)C)C(=O)N[C@@H](CC(=O)O)C(=O)N[C@@H](Cc1ccc(O)cc1)C(=O)N[C@@H](CC(C)C)C(=O)N[C@@H](C)C(=O)N[C@@H](C)C(=O)N[C@@H](CCCNC(=N)N)C(=O)N[C@@H](CC(=O)O)C(=O)N[C@@H](Cc1ccccc1)C(=O)N[C@H](C(=O)N[C@@H](CC(N)=O)C(=O)N[C@@H](Cc1c[nH]c2ccccc12)C(=O)N[C@@H](CC(C)C)C(=O)N[C@H](C(=O)N[C@@H](CCC(N)=O)C(=O)N[C@H](C(=O)N[C@@H](CCCCN)C(N)=O)[C@@H](C)O)[C@@H](C)CC)[C@@H](C)CC)[C@@H](C)CC)[C@@H](C)O (some centres undefined) (H-HGDGSFSDE[ξNle]NTILDYLAARDFINWLIQTK-NH2)	> 9000
inactive	0.13	0.42	> 1000	CCCCC(NC(=O)[C@H](CCC(=O)O)NC(=O)[C@H](CC(=O)O)NC(=O)[C@H](CO)NC(=O)[C@H](Cc1ccccc1)NC(=O)[C@H](CO)NC(=O)CNC(=O)[C@H](CC(=O)O)NC(=O)CNC(=O)[C@@H](N)Cc1cnc[nH]1)C(=O)N[C@@H](CC(N)=O)C(=O)N[C@H](C(=O)N[C@H](C(=O)N[C@@H](CC(C)C)C(=O)N[C@@H](CC(=O)O)C(=O)N[C@@H](Cc1cnc[nH]1)C(=O)N[C@@H](CC(C)C)C(=O)N[C@@H](C)C(=O)N[C@@H](C)C(=O)N[C@@H](CCCNC(=N)N)C(=O)N[C@@H](CC(=O)O)C(=O)N[C@@H](Cc1ccccc1)C(=O)N[C@H](C(=O)N[C@@H](CC(N)=O)C(=O)N[C@@H](Cc1c[nH]c2ccccc12)C(=O)N[C@@H](CC(C)C)C(=O)N[C@H](C(=O)N[C@@H](CCC(N)=O)C(=O)N[C@H](C(=O)N[C@@H](CCCCN)C(N)=O)[C@@H](C)O)[C@@H](C)CC)[C@@H](C)CC)[C@@H](C)CC)[C@@H](C)O (some centres undefined) (H-HGDGSFSDE[ξNle]NTILDHLAARDFINWLIQTK-NH2)	> 2300
inactive				CCCCC(NC(=O)[C@H](CCC(=O)O)NC(=O)[C@H](CC(=O)O)NC(=O)[C@H](CO)NC(=O)[C@H](Cc1ccccc1)NC(=O)[C@H](CO)NC(=O)CNC(=O)[C@H](CC(=O)O)NC(=O)CNC(=O)[C@H](N)Cc1cnc[nH]1)C(=O)N[C@@H](CC(N)=O)C(=O)N[C@H](C(=O)N[C@H](C(=O)N[C@@H](CC(C)C)C(=O)N[C@@H](CC(=O)O)C(=O)NC(Cc1ccc(N)cc1)C(=O)N[C@H](CC(C)C)C(=O)N[C@H](C)C(=O)N[C@H](C)C(=O)N[C@H](CCCNC(=N)N)C(=O)N[C@H](CC(=O)O)C(=O)N[C@H](Cc1ccccc1)C(=O)N[C@@H](C(=O)N[C@H](CC(N)=O)C(=O)N[C@@H](Cc1c[nH]c2ccccc12)C(=O)N[C@@H](CC(C)C)C(=O)N[C@H](C(=O)N[C@@H](CCC(N)=O)C(=O)N[C@H](C(=O)N[C@H](CCCCN)C(N)=O)[C@@H](C)O)[C@H](C)CC)[C@@H](C)CC)[C@H](C)CC)[C@@H](C)O (some centres undefined)	> 7600
inactive				CCCCC(NC(=O)[C@H](CCC(=O)O)NC(=O)[C@H](CC(=O)O)NC(=O)[C@H](CO)NC(=O)[C@H](Cc1ccccc1)NC(=O)[C@H](CO)NC(=O)CNC(=O)[C@H](CC(=O)O)NC(=O)CNC(=O)[C@H](N)Cc1cnc[nH]1)C(=O)N[C@@H](CC(N)=O)C(=O)N[C@H](C(=O)N[C@H](C(=O)N[C@@H](CC(C)C)C(=O)N[C@@H](CC(=O)O)C(=O)NC(Cc1ccc(Cl)cc1)C(=O)N[C@H](CC(C)C)C(=O)N[C@H](C)C(=O)N[C@H](C)C(=O)N[C@H](CCCNC(=N)N)C(=O)N[C@H](CC(=O)O)C(=O)N[C@H](Cc1ccccc1)C(=O)N[C@@H](C(=O)N[C@H](CC(N)=O)C(=O)N[C@@H](Cc1c[nH]c2ccccc12)C(=O)N[C@@H](CC(C)C)C(=O)N[C@H](C(=O)N[C@@H](CCC(N)=O)C(=O)N[C@H](C(=O)N[C@H](CCCCN)C(N)=O)[C@@H](C)O)[C@H](C)CC)[C@@H](C)CC)[C@H](C)CC)[C@@H](C)O (some centres undefined)	> 4500
inactive	0.5	0.15	> 1000	CCCCC(NC(=O)[C@H](CCC(=O)O)NC(=O)[C@H](CC(=O)O)NC(=O)[C@H](CO)NC(=O)[C@H](Cc1ccccc1)NC(=O)[C@H](CO)NC(=O)CNC(=O)[C@H](CC(=O)O)NC(=O)CNC(=O)[C@@H](N)Cc1cnc[nH]1)C(=O)N[C@@H](CC(N)=O)C(=O)N[C@H](C(=O)N[C@H](C(=O)N[C@@H](CC(C)C)C(=O)N[C@@H](CC(=O)O)C(=O)N[C@@H](Cc1c[nH]c2ccccc12)C(=O)N[C@@H](CC(C)C)C(=O)N[C@@H](C)C(=O)N[C@@H](C)C(=O)N[C@@H](CCCNC(=N)N)C(=O)N[C@@H](CC(=O)O)C(=O)N[C@@H](Cc1ccccc1)C(=O)N[C@H](C(=O)N[C@@H](CC(N)=O)C(=O)N[C@@H](Cc1c[nH]c2ccccc12)C(=O)N[C@@H](CC(C)C)C(=O)N[C@H](C(=O)N[C@@H](CCC(N)=O)C(=O)N[C@H](C(=O)N[C@@H](CCCCN)C(N)=O)[C@@H](C)O)[C@@H](C)CC)[C@@H](C)CC)[C@@H](C)CC)[C@@H](C)O (some centres undefined) (H-HGDGSFSDE[ξNle]NTILDWLAARDFINWLIQTK-NH2)	> 6600
inactive	5.9	0.14	> 1000	CCCCC(NC(=O)[C@H](CCC(=O)O)NC(=O)[C@H](CC(=O)O)NC(=O)[C@H](CO)NC(=O)[C@H](Cc1ccccc1)NC(=O)[C@H](CO)NC(=O)CNC(=O)[C@H](CC(=O)O)NC(=O)CNC(=O)[C@@H](N)Cc1cnc[nH]1)C(=O)N[C@@H](CC(N)=O)C(=O)N[C@H](C(=O)N[C@H](C(=O)N[C@@H](CC(C)C)C(=O)N[C@@H](CC(=O)O)C(=O)N[C@@H](Cc1ccccc1)C(=O)N[C@@H](CC(C)C)C(=O)N[C@@H](C)C(=O)N[C@@H](C)C(=O)N[C@@H](CCCNC(=N)N)C(=O)N[C@@H](CC(=O)O)C(=O)N[C@@H](Cc1ccccc1)C(=O)N[C@H](C(=O)N[C@@H](CC(N)=O)C(=O)N[C@@H](Cc1c[nH]c2ccccc12)C(=O)N[C@@H](CC(C)C)C(=O)N[C@H](C(=O)N[C@@H](CCC(N)=O)C(=O)N[C@H](C(=O)N[C@@H](CCCCN)C(N)=O)[C@@H](C)O)[C@@H](C)CC)[C@@H](C)CC)[C@@H](C)CC)[C@@H](C)O (some centres undefined) (H-HGDGSFSDE[ξNle]NTILDFLAARDFINWLIQTK-NH2)	> 7100
inactive	0.44	0.11	> 1000	CCCCC(NC(=O)[C@H](CCC(=O)O)NC(=O)[C@H](CC(=O)O)NC(=O)[C@H](CO)NC(=O)[C@H](Cc1ccccc1)NC(=O)[C@H](CO)NC(=O)CNC(=O)[C@H](CC(=O)O)NC(=O)CNC(=O)[C@@H](N)Cc1cnc[nH]1)C(=O)N[C@@H](CC(N)=O)C(=O)N[C@H](C(=O)N[C@H](C(=O)N[C@@H](CC(C)C)C(=O)N[C@@H](CC(=O)O)C(=O)NC(CCc1ccccc1)C(=O)N[C@@H](CC(C)C)C(=O)N[C@@H](C)C(=O)N[C@@H](C)C(=O)N[C@@H](CCCNC(=N)N)C(=O)N[C@@H](CC(=O)O)C(=O)N[C@@H](Cc1ccccc1)C(=O)N[C@H](C(=O)N[C@@H](CC(N)=O)C(=O)N[C@@H](Cc1c[nH]c2ccccc12)C(=O)N[C@@H](CC(C)C)C(=O)N[C@H](C(=O)N[C@@H](CCC(N)=O)C(=O)N[C@H](C(=O)N[C@@H](CCCCN)C(N)=O)[C@@H](C)O)[C@@H](C)CC)[C@@H](C)CC)[C@@H](C)CC)[C@@H](C)O (some centres undefined) (H-HGDGSFSDE[ξNle]NTILD[ξhPhe]LAARDFINWLIQTK-NH2)	> 9000
